In the NIST ThermoML archive (doi:10.1021/acs.jced.6b00350):
“And” between values parts separate entries of the source, which are not always exact repeats. Equal entries are not always repeated.

Conditions: Liquid, Hot wire method

FC(F)CC(F)(F)F [1,1,1,3,3-pentafluoropropane]
Conditions	thermal conductivity
201.86 K, 21419 kPa	0.124 W/m/K
201.86 K, 21433 kPa	0.1239 W/m/K
201.87 K, 27158 kPa	0.1248 W/m/K
202.1 K, 4763 kPa	0.1206 W/m/K
202.12 K, 10088 kPa	0.1217 W/m/K
202.12 K, 10097 kPa	0.1218 W/m/K
202.15 K, 15804 kPa	0.1229 W/m/K
202.15 K, 15839 kPa	0.1229 W/m/K
202.2 K, 267 kPa	0.1193 W/m/K
202.2 K, 275 kPa	0.1195 W/m/K
202.2 K, 21408 kPa	0.1237 W/m/K
202.2 K, 21420 kPa	0.1237 W/m/K
202.21 K, 27161 kPa	0.1249 W/m/K
202.23 K, 27677 kPa	0.1252 W/m/K
202.24 K, 27673 kPa	0.1255 W/m/K
202.24 K, 33666 kPa	0.1267 W/m/K
202.24 K, 33675 kPa	0.1266 W/m/K
202.26 K, 40147 kPa	0.1279 W/m/K
202.26 K, 40151 kPa	0.1278 W/m/K
202.27 K, 46773 kPa	0.129 W/m/K
202.27 K, 46779 kPa	0.1291 W/m/K
202.27 K, 53774 kPa	0.1304 W/m/K
202.28 K, 53774 kPa	0.1304 W/m/K
202.28 K, 60672 kPa	0.1313 W/m/K
202.28 K, 60684 kPa	0.1319 W/m/K
202.29 K, 67566 kPa	0.1328 W/m/K
202.29 K, 67588 kPa	0.1327 W/m/K
202.48 K, 4763 kPa	0.1205 W/m/K
202.49 K, 10097 kPa	0.1216 W/m/K
202.49 K, 10103 kPa	0.1216 W/m/K
202.52 K, 15780 kPa	0.1229 W/m/K
202.52 K, 15825 kPa	0.1229 W/m/K
202.57 K, 21412 kPa	0.1238 W/m/K
202.57 K, 21416 kPa	0.1237 W/m/K
202.57 K, 27164 kPa	0.1249 W/m/K
202.58 K, 275 kPa	0.1195 W/m/K
202.58 K, 288 kPa	0.1194 W/m/K
202.59 K, 27679 kPa	0.1253 W/m/K
202.59 K, 27683 kPa	0.1253 W/m/K
202.59 K, 33679 kPa	0.1264 W/m/K
202.6 K, 33675 kPa	0.1265 W/m/K
202.61 K, 40142 kPa	0.1278 W/m/K
202.62 K, 40147 kPa	0.1278 W/m/K
202.62 K, 46778 kPa	0.129 W/m/K
202.62 K, 46780 kPa	0.1289 W/m/K
202.62 K, 53770 kPa	0.1302 W/m/K and 0.1303 W/m/K
202.63 K, 60672 kPa	0.1318 W/m/K
202.63 K, 60673 kPa	0.1317 W/m/K
202.63 K, 67539 kPa	0.1325 W/m/K
202.63 K, 67552 kPa	0.1327 W/m/K
202.89 K, 4767 kPa	0.1203 W/m/K
202.89 K, 4772 kPa	0.1204 W/m/K
202.9 K, 10110 kPa	0.1216 W/m/K
202.92 K, 15810 kPa	0.1227 W/m/K
202.92 K, 15863 kPa	0.1227 W/m/K
202.97 K, 21416 kPa	0.1236 W/m/K
202.97 K, 21421 kPa	0.1236 W/m/K
202.97 K, 27152 kPa	0.1247 W/m/K
202.97 K, 27157 kPa	0.1247 W/m/K
202.98 K, 27682 kPa	0.1253 W/m/K
202.98 K, 33690 kPa	0.1266 W/m/K
202.99 K, 306 kPa	0.1193 W/m/K
202.99 K, 337 kPa	0.1194 W/m/K
202.99 K, 27679 kPa	0.1252 W/m/K
202.99 K, 33685 kPa	0.1265 W/m/K
203 K, 40148 kPa	0.1278 W/m/K
203 K, 46783 kPa	0.1289 W/m/K and 0.129 W/m/K
203 K, 53771 kPa	0.1302 W/m/K
203 K, 53775 kPa	0.1301 W/m/K
203 K, 60661 kPa	0.1314 W/m/K
203 K, 60670 kPa	0.1314 W/m/K
203 K, 67499 kPa	0.1327 W/m/K
203 K, 67521 kPa	0.1326 W/m/K
203.01 K, 40146 kPa	0.1276 W/m/K
203.32 K, 4769 kPa	0.1202 W/m/K
203.32 K, 4775 kPa	0.1202 W/m/K
203.33 K, 10125 kPa	0.1214 W/m/K
203.33 K, 10131 kPa	0.1214 W/m/K
203.34 K, 15898 kPa	0.1226 W/m/K
203.35 K, 15840 kPa	0.1227 W/m/K
203.39 K, 27154 kPa	0.1246 W/m/K
203.39 K, 27157 kPa	0.1243 W/m/K
203.4 K, 21419 kPa	0.1235 W/m/K
203.4 K, 33699 kPa	0.1263 W/m/K
203.4 K, 67478 kPa	0.1323 W/m/K
203.41 K, 27689 kPa	0.1252 W/m/K
203.41 K, 33685 kPa	0.1264 W/m/K
203.41 K, 46771 kPa	0.1289 W/m/K
203.41 K, 46773 kPa	0.1287 W/m/K
203.41 K, 53771 kPa	0.1302 W/m/K
203.41 K, 53772 kPa	0.1301 W/m/K
203.41 K, 60658 kPa	0.1313 W/m/K
203.41 K, 60664 kPa	0.1315 W/m/K
203.41 K, 67491 kPa	0.1325 W/m/K
203.42 K, 40141 kPa	0.1277 W/m/K
203.42 K, 40147 kPa	0.1276 W/m/K
203.43 K, 372 kPa	0.119 W/m/K
203.43 K, 393 kPa	0.1193 W/m/K
203.83 K, 67450 kPa	0.1325 W/m/K
203.83 K, 67465 kPa	0.1324 W/m/K
203.84 K, 53769 kPa	0.13 W/m/K
203.84 K, 60649 kPa	0.1313 W/m/K and 0.1311 W/m/K
203.85 K, 27696 kPa	0.1251 W/m/K
203.85 K, 33690 kPa	0.1263 W/m/K
203.85 K, 33700 kPa	0.1263 W/m/K
203.85 K, 46765 kPa	0.1288 W/m/K
203.85 K, 46774 kPa	0.1288 W/m/K
203.85 K, 53757 kPa	0.13 W/m/K
203.86 K, 27682 kPa	0.125 W/m/K
203.86 K, 40135 kPa	0.1275 W/m/K
203.86 K, 40141 kPa	0.1276 W/m/K
221.72 K, 250 kPa	0.1129 W/m/K
221.72 K, 251 kPa	0.113 W/m/K
221.73 K, 4830 kPa	0.1143 W/m/K
221.73 K, 4854 kPa	0.1145 W/m/K
221.74 K, 10031 kPa	0.1155 W/m/K
221.75 K, 10011 kPa	0.1159 W/m/K
221.76 K, 15754 kPa	0.1169 W/m/K
221.76 K, 15760 kPa	0.1169 W/m/K
221.77 K, 21259 kPa	0.1183 W/m/K
221.77 K, 21264 kPa	0.1188 W/m/K
221.78 K, 27420 kPa	0.1202 W/m/K
221.78 K, 27443 kPa	0.1204 W/m/K
222 K, 39755 kPa	0.1236 W/m/K
222 K, 39756 kPa	0.1236 W/m/K
222 K, 47190 kPa	0.1252 W/m/K
222.01 K, 47202 kPa	0.1258 W/m/K
222.01 K, 54322 kPa	0.1269 W/m/K
222.01 K, 54323 kPa	0.1269 W/m/K
222.02 K, 61325 kPa	0.1285 W/m/K
222.02 K, 61363 kPa	0.1286 W/m/K
222.02 K, 67941 kPa	0.1302 W/m/K
222.02 K, 67960 kPa	0.13 W/m/K
222.09 K, 253 kPa	0.1125 W/m/K
222.09 K, 4859 kPa	0.1139 W/m/K
222.09 K, 4863 kPa	0.1139 W/m/K
222.1 K, 247 kPa	0.1124 W/m/K
222.11 K, 10038 kPa	0.1155 W/m/K
